The values that follow come from PubChem BioAssay (NCI).

Experiment in all cases: NCI anticancer screen, dose series, 48 h
The test system of assay [1] is CCRF-CEM leukemia.
For assay [2], the system named is SR leukemia.
Assay [3] has as its system SNB-19 CNS.
For assay [4], the system named is OVCAR-5 ovarian.
Assay [5] concerns IGROV1 ovarian.
The test system of assay [6] is RXF 393 renal.
Assay [7] has as its system HCT-116 colon.
Assay [8] deals with NCI-H460 lung.
Assay [9] relates to SN12C renal.
The subject of assay [10] is HOP-62 NSCLC.
Assay [11] concerns SK-MEL-5 melanoma.
In assay [12] the test system is TK-10 renal.
In assay [13] the test system is 786-0 renal.
Assay [14] has as its system OVCAR-4 ovarian.
The subject of assay [15] is MCF7 breast.
Assay [16] relates to MDA-MB-435.

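Compound exposure: 48 hours, 5 concentrations, 96-well plates. TGI marks complete inhibition of growth.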

Take `COC(=O)c1c(C)cccc1/C=C1\Cc2cc(C)cc(C)c2C1=O`: the TGI in [1] is above 100 µM; in [2] it was above 100 µM; in [3], above 100 µM; in [4], above 100 µM; in assay [5], above 100 µM; in assay [6], 58.5 µM. Also, the TGI in [7] is above 100 µM; in assay [8], above 100 µM; in assay [9], above 100 µM; in assay [10], 37.7 µM; in assay [11] it was above 100 µM; in assay [12] it was 73 µM. Also, the TGI in assay [13] was above 100 µM; in [14] it was 51.4 µM; in [15] it was above 100 µM.

As for `COc1ccc(C(C#N)NNc2nc(C)cc(=O)[nH]2)cc1OC` (stereo unspecified), the TGI in [1], in assay [2], in [4], in assay [5], in assay [6] and in assay [7] was above 100 µM each time. For the same compound, the TGI in [8], in assay [9], in assay [10], in assay [11], in assay [12] and in [13] was above 100 µM in each case. The TGI in assay [14] was above 100 µM.

`CN(CCc1ccc(N)cc1)[C@H]1CCCC[C@H]1N1CCCC1`: the TGI in assay [3], in assay [4], in assay [5], in assay [6], in assay [7] and in assay [8] was above 100 µM throughout. The TGI in [9], in assay [10], in [16], in assay [11], in assay [12] and in assay [13] was above 100 µM in each case. In addition, the TGI in assay [14] and in [15] was above 100 µM each time.

For `S=C1N=C(Cl)C2(NN1)c1ccccc1-c1ccccc12`, the TGI in [1], in assay [2], in [5], in assay [8], in assay [9] and in assay [10] was above 10 µM in each case. Besides, the TGI in [11], in [12], in assay [13], in assay [14] and in assay [15] was above 10 µM each time.

On to `CN=S(=O)(c1ccccc1)c1ccccc1`, for which the TGI in assay [1], in assay [2], in assay [3], in [4], in [5] and in assay [6] was above 100 µM each time. In addition, the TGI in assay [7], in assay [8], in [9], in [10], in [11] and in assay [12] was above 100 µM in each case. Moreover, the TGI in assay [13] and in assay [14] was above 100 µM in each case.

Take `COC(=O)C1C2C=CC(C2)N1[C@@H](C)c1ccccc1` (stereo partly specified): the TGI in assay [1], in assay [2], in [3], in assay [4], in [5] and in assay [7] was above 100 µM each time. In addition, the TGI in assay [8], in [9], in assay [10], in assay [11], in assay [12] and in [13] was above 100 µM each time.

Regarding `CC(=O)OC1c2ccccc2CCCCCCC12OCCO2` (stereo unspecified), the TGI in assay [1], in assay [3], in assay [4], in assay [5], in assay [6] and in assay [7] was above 100 µM throughout. Also, the TGI in assay [8], in assay [9], in assay [10], in assay [11], in assay [12] and in assay [13] was above 100 µM throughout. In addition, in assay [14], the TGI was above 100 µM.

In the case of `CC(=O)NC1=C(C)C(=O)c2c(nc3n2CCC3O)C1=N` (stereo unspecified), the TGI is above 100 µM in assay [1]; above 100 µM in [2]; 50.4 µM in assay [3]; 36.6 µM in assay [4]; 39.3 µM in [5]; 6.88 µM in assay [7]. Also, the TGI is 51.3 µM in assay [8]; 19 µM in assay [9]; above 100 µM in assay [10]; 26.2 µM in assay [11]; 85.4 µM in assay [12]; 40.4 µM in [13]. Also, the TGI in assay [14] was determined as 14.6 µM.

Consider `NC(=O)N1N=C2c3ccccc3SC[C@H]2[C@@H]1c1ccccc1`, for which the TGI was 70.7 µM in assay [1]; above 100 µM in assay [2]; above 100 µM in [3]; 60.2 µM in [4]; 68.4 µM in [5]; 26 µM in assay [6]. Further, the TGI is 28.2 µM in assay [7]; 40.8 µM in [8]; above 100 µM in assay [9]; 65.6 µM in assay [10]; 21.8 µM in assay [11]; 92.6 µM in [12]. Moreover, the TGI in assay [13] was above 100 µM; in [14], 73.4 µM.

In the case of `CCOC(=O)C(NC(=O)Nc1ccc(Cl)c(Cl)c1)C(F)(F)F` (stereo unspecified), the TGI in assay [1], in assay [2], in assay [3], in [4], in assay [5] and in assay [6] was above 100 µM each time. The TGI in [7], in assay [9], in assay [16], in assay [11], in assay [12] and in assay [13] was above 100 µM throughout.
